Experimental data published in patent US9745288B2, “Compounds and methods for treating cancer by inhibiting the urokinase receptor” (Indiana University Research and Technology Corporation, priority 2011, dated 2017).
Entries after “also recorded” stand apart in the source; their conditions may differ. Like-named read-outs stand apart in the source and are kept apart here.

What was measured:
uPAR = biological target: T1, uPAR (Homo sapiens, UniProt Q03405); test: Fluorescence polarization assay, displacement of AE147-FAM peptide from uPAR; assay type: binding
T1 construct: human uPAR (suPAR, amino acids 1-283) was expressed in stably transfected Drosophila S2 cells; made in house; host or cells: Drosophila S2 cells
T1 sequence (Q03405 23-305): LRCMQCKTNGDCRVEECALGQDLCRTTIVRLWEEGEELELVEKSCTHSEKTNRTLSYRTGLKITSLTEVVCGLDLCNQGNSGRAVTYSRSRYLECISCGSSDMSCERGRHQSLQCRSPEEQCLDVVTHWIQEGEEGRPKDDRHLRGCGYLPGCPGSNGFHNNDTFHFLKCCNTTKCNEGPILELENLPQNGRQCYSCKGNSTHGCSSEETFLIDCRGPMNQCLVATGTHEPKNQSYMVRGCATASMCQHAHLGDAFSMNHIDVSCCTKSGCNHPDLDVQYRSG
Procedure: Fluorescence Polarization Assay. The fluorescence polarization assay used fluorescent AE147-FAM peptide. uPAR was titrated against the fluorescent AE147-FAM peptide and data were fit to a sigmoidal dose-dependent curve as the FP value increases to determine the Kd of binding using Sigmaplot (Systat Software Inc., CA). Inhibitor screens were carried out in triplicates using 500 nM uPAR, 100 nM AE147-FAM, and inhibitor concentrations ranging from 0.78 μM to 100 μM in 50 μL volumes in black BD Falcon 384-well microplate. […] Polarized fluorescence intensities were measured immediately following addition of inhibitors to the protein-peptide mix at room temperature on an EnVision® Multilabel Plate Readers (PerkinElmer) with excitation and emission wavelengths of 485 nm and 530 nm, respectively.
Cloning, Expression and Purification of uPAR. uPAR was successfully cloned, expressed and purified. From 1 L of culture, nearly 12 mg of protein was expressed, which will be sufficient to conduct the experiments disclosed herein. Briefly, a truncated, soluble form of human uPAR (suPAR, amino acids 1-283) was expressed in stably transfected Drosophila S2 cells using the Drosophila Expression System (Invitrogen). suPAR was obtained by a two-step purification process. The conditioned culture medium was filtered (0.45 μm) and loaded onto a DEAE Sephadex column equilibrated with 20 mM Tris (pH 7.4). The protein was eluted with a gradient of 0-1 M NaCl in 20 mM Tris (pH 7.4). suPAR containing fractions were then pooled, concentrated, and filtered prior to RP-HPLC using a semi-preparative (10×25 cm) C8 column. A 1 mL aliquot of the concentrated protein was loaded onto the column at initial gradient conditions of 95% eluent A and 5% eluent B, where eluent A was 0.1% TFA/100% H2O and eluent B was 70:30 acetonitrile/[…]. The protein elutes using a gradient of 5% eluent A to 95% eluent B over 46 minutes at a flow rate of 4 mL/min. Under these conditions, the protein eluted as a single sharp peak (tR=29 min). […] Surface plasmon resonance confirmed that the purified uPAR was capable of binding to uPA. The identity of the 60 kDa band was established by immunoblot (not shown).
The design of a fluorescent probe was guided by the three-dimensional structure of uPAR in complex with peptide AE147.^27 As this peptide binds at the same site that is occupied by the growth factor-like domain of uPA, it provides the basis for the development of a competition assay to assess binding to this site. Flurescein was introduced to the N-terminus of AE147.
All 210 compounds were screened at initial concentration of 50 μM for displacement of AE147-FAM peptide. Eleven compounds gave polarization readings that were five times that of the standard deviation of the control peptide (FIG. 1B). Secondary concentration-dependent study for these eleven compounds was performed.
The resulting inhibition curves were used to determine an inhibition constant, Ki, for each.

phospho-p44/42 MAPK = test: Immunoblot of MAPK phosphorylation in MDA-MB-231 cells; assay type: cell-based, human; conditions: 100 μM, 30 minutes
Procedure: Immunoblots. MDA-MB-231 cells treated with 100 μM of compound(s)/1% DMSO for 30 min. Harvested cell lysates in RIPA buffer supplemented with protease inhibitors and phosphatase inhibitors. Under non-reducing condition equal amounts of protein were loaded per lane and separated in 4-12% NuPAGE gel (Invitrogen) at 200 V for 60 minutes, then transferred to Nitrocellulose membrane at 30 V for one hour using XCell II blot module. […] Secondary antibody: goat anti-rabbit IgG HRP 1:3000 in 5% non-fat milk-TBST at room for 1 hour. The protein bands were visualized using Immobilon Western Chemiluminescent HRP Substrate (WBKLS0100, Millipore, Billerica, Mass.). Fibronectin (Sigma, F2006) […] coated in 6-well plates overnight. MDA-MB-231serum-starved for 4 hours and then seeded in FN coated 6-well plates and treated with 5,10, 20 and 40 μM compound(s)/1% DMSO for 30 min, cells were lysated in RIPA buffer supplemented with protease inhibitors and phosphatase inhibitors. Then IB with phospho-p44/42 MAPK (Thr202/Tyr204), p44/42 MAPK; phospho-FAK (Tyr397), FAK; phospho-Src family (Tyr416), Src, respectively.
A concentration-dependent study was subsequently carried out for IPR-1 (FIG. 6B). […] The effect of the compound also was studied in two other signaling pathways including FAK and Src. FAK is constitutively associated with β-integrin subunits of integrin receptors.

hERG channel = biological target: T2, hERG channel (Homo sapiens, UniProt Q12809); test: hERG fluorescence polarization Predictor Assay; assay type: binding; design: dose or concentration left out as unconfirmed
T2 construct: purchased Invitrogen (Carlsbad, Calif.)
T2 sequence (Q12809 whole entry): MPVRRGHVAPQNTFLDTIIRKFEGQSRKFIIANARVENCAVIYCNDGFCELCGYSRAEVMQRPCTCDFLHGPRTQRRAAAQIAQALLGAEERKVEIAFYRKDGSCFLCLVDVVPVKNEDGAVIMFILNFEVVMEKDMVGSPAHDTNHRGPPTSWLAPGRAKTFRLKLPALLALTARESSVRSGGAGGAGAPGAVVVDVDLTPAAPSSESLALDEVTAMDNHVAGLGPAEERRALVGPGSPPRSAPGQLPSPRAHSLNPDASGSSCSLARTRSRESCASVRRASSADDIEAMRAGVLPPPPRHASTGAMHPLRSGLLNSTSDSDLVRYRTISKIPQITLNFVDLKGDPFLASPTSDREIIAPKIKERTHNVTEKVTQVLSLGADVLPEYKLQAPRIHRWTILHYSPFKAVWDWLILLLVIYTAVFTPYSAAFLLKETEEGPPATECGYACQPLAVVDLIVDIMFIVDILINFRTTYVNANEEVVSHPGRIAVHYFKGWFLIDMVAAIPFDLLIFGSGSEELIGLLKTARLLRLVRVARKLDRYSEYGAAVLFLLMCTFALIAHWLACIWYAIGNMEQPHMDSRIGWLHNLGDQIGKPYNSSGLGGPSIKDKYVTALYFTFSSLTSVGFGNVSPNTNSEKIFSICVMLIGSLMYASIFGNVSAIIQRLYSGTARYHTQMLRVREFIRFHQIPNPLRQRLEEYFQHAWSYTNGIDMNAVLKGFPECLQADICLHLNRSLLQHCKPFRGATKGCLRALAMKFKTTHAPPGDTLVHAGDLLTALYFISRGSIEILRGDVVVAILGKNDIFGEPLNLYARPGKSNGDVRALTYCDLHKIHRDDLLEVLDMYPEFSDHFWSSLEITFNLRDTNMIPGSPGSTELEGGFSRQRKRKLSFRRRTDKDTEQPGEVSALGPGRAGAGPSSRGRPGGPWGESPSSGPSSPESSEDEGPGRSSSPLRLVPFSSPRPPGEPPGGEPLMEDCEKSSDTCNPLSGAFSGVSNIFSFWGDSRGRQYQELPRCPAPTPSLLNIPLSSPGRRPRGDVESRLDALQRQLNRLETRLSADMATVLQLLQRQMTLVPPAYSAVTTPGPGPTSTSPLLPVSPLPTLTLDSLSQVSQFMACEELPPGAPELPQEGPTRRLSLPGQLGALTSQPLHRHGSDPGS
Excerpt: Inhibition of the hERG channel is undesirable. Checking for hERG blockage is an integral step in the drug discovery cycle. The presently disclosed method is well-suited for high-throughput measurements based on fluorescence polarization (FP) as implemented in the Predictor Assay by Invitrogen (Carlsbad, Calif.). This assay is based on the principle that a fluorescent tracer upon binding to the hERG channel will induce an increase in the FP signal that will diminish when an inhibitor displaces the interaction between the tracer and the hERG channel.
FP measurements for IPR-1 and IPR-69 were performed using an EnVision (PerkinElmer) plate reader at an excitation of 540 nm and emission at 573 nm. […] At the highest concentration of 25 μM, which is near its biological activity in tumor cells, 60% blockage is detected.

salmon sperm DNA = test: Fluorescent Intercalator Displacement assay (ethidium bromide); assay type: binding; design: displacement of ethidium bromide: dose or concentration left out as unconfirmed; conditions: for displacement of ethidium bromide: […] μM; for DNA binding: three concentrations tested
Procedure: Finally, DNA binding by these three compounds was assessed. DNA binding is often a reflection of non-specificity, which can lead to adverse side effects. The well-established Fluorescent Intercalator Displacement assay by Tse et al.^43 that measures displacement of ethidium bromide, a known intercalator of DNA was used. In this assay, ethidium bromide (EB) bound to the salmon sperm DNA.

IC50 (uPAR; Table 1, assay not stated) [µM]	Ki (uPAR; Table 1, assay not stated, read-out: Ki) [µM]	Compound	Ki (uPAR; from concentration-dependent inhibition curves, read-out: inhibition constant, Ki) [µM]	effect on MAPK phosphorylation (phospho-p44/42 MAPK)	hERG blockage (hERG channel; […] μM) [%]	displacement of ethidium bromide (salmon sperm DNA)	DNA binding (salmon sperm DNA)	hERG channel blockage (hERG channel; 1, 10 and […] μM)
–	–	Cc1cc(C)cc(NC(=O)c2cnn(-c3ccc(C(C)C)cc3)c2C2CCNCC2)c1 [IPR-69, N-(3,5-dimethylphenyl)-1-(4-isopropylphenyl)-5-(piperidin-4-yl)-1H-pyrazole-4-carboxamide]	30	abrogated phosphorylation, but the effects were weaker than IPR-9	60	less than 10%	not strongly affected; also recorded: no DNA binding	–
24.4	7.4	CN(C)c1ccc(CNCCC(Cc2ccccc2)c2ccc3c(c2)OCO3)cc1 (racemic) [IPR-9, 4-(((3-(benzo[d][1,3]dioxol-5-yl)-4-phenylbutyl)amino)methyl)-N,Ndimethylaniline]	–	significant impairment	–	30%	not strongly affected	even greater hERG K^+ channel blockage than the well-known channel blocker E-4031
